From patent publication US12077503B2, “Substituted cyclic amides and their use as herbicides” (FMC CORPORATION, priority 2015, dated 2024)
Like-named read-outs stand apart in the source and are kept apart here.

Experiments:
Type in all cases: in vivo
[1] = test system: barnyardgrass (Echinochloa crus-galli); assay: Test A preemergence; conditions: Echinochloa crus-galli, pre-emergence, 240 h, read-out: Plant response rating, Barnyardgrass; for pest or weed control at 500 g/ha: 500 g ai/ha; for pest or weed control at 125 g/ha: 125 g ai/ha
Summary of the method: (§1)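 Greenhouse, ~10 d after spray; visual injury vs untreated controls, 0 = no effect, 100 = complete control. Preemergence: directed soil spray over planted seeds. Postemergence: plants 2–10 cm, 1–2 leaf stage. Loam/sand blend. Compound in non-phytotoxic solvent with surfactant.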

[2] = test system: ragweed (common ragweed, Ambrosia elatior); assay: Test A preemergence; conditions: Ambrosia artemisiifolia, pre-emergence, 240 h, read-out: Plant response rating, Ragweed; for pest or weed control at 500 g/ha: 500 g ai/ha; for pest or weed control at 125 g/ha: 125 g ai/ha
Summary of the method: as §1

[3] = test system: pigweed (Amaranthus retroflexus); assay: Test A preemergence; conditions: Amaranthus retroflexus, pre-emergence, 240 h, read-out: Plant response rating, Pigweed; for pest or weed control at 500 g/ha: 500 g ai/ha; for pest or weed control at 125 g/ha: 125 g ai/ha
[4] = test system: giant foxtail (Setaria faberii); assay: Test A preemergence; conditions: Setaria faberi, pre-emergence, 240 h, read-out: Plant response rating, Foxtail, Giant; for pest or weed control at 500 g/ha: 500 g ai/ha; for pest or weed control at 125 g/ha: 125 g ai/ha
Summary of the method: as §1

[5] = test system: Kochia (Kochia scoparia); assay: Test A preemergence; conditions: Bassia scoparia, pre-emergence, 240 h, read-out: Plant response rating, Kochia; for pest or weed control at 500 g/ha: 500 g ai/ha; for pest or weed control at 125 g/ha: 125 g ai/ha
Summary of the method: as §1

[6] = test system: ryegrass, Italian (Italian ryegrass, Lolium multiflorum); assay: Test A preemergence; conditions: Lolium multiflorum, pre-emergence, 240 h, read-out: Plant response rating, Ryegrass, Italian; for pest or weed control at 125 g/ha: 125 g ai/ha
Summary of the method: as §1

[7] = test system: Galium (catchweed bedstraw, Galium aparine); assay: Test A postemergence; conditions: Galium, post-emergence, 240 h; for pest or weed control at 125 g/ha: 125 g ai/ha
Summary of the method: as §1

[8] = test system: pigweed (Amaranthus retroflexus); assay: Test A postemergence; conditions: Amaranthus retroflexus, post-emergence, 240 h; for pest or weed control at 125 g/ha: 125 g ai/ha; for pest or weed control at 500 g/ha: 500 g ai/ha, visual injury, approx. 10 d
Summary of the method: as §1

[9] = test system: corn (Zea mays); assay: Test A postemergence; conditions: Zea mays, post-emergence, 240 h; for plant injury at 125 g/ha / Corn plant response rating (crop injury, 0 = no effect, 100 = complete kill) at 500 g/ha: Postemergence; for plant injury at 125 g/ha: visual rating about 10 d after treatment, read-out: Corn plant response rating (0 to 100 scale); for Corn plant response rating (crop injury, 0 = no effect, 100 = complete kill) at 500 g/ha: 500 g ai/ha, visual injury, approx. 10 d
Summary of the method: as §1

[10] = test system: barnyardgrass (Echinochloa crus-galli); assay: Test B flooded paddy test; conditions: Echinochloa crus-galli, Flood, 250 g ai/ha
Summary of the method: (§2)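 Evaluation by eye, against controls, occurred 13–15 d post-treatment in a greenhouse, using a 0 (no effect) to 100 (complete control) scale. Application was into the paddy water, 3 cm deep over the soil, on 2-leaf plants.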

[11] = test system: rice (Oryra sativa); assay: Test B flooded paddy test; conditions: Oryza sativa, Flood, 250 g ai/ha
Summary of the method: as §2

[12] = test system: sedge, umbrella (small-flower umbrella sedge, Cyperus difformis); assay: Test B flooded paddy test; conditions: Cyperus difformis, Flood, 250 g ai/ha
Summary of the method: as §2

[13] = test system: ducksalad (Heteranthera limosa); assay: Test B flooded paddy test; conditions: Heteranthera limosa, Flood, 250 g ai/ha
Summary of the method: as §2

[14] = preemergence, 0 to 100 scale (0 no effect, 100 complete control)
[15] = Preemergence, 0 to 100 scale (0 no effect, 100 complete control)
[16] = Postemergence, visual rating about 10 d after treatment, read-out: Pigweed plant response rating (0 to 100 scale)
[17] = Postemergence, 0 to 100 scale (0 no effect, 100 complete control), read-out: Plant response rating, Pigweed
[18] = 0 to 100 scale (0 no effect, 100 complete control)
[19] = 360 h, visually evaluated after 13 to 15 d, read-out: Plant response rating, Barnyardgrass (0 to 100 scale where 0 is no effect and 100 is complete control)
[20] = 360 h, visually evaluated after 13 to 15 d, read-out: Plant response rating, Rice (0 to 100 scale where 0 is no effect and 100 is complete control)
[21] = 360 h, visually evaluated after 13 to 15 d, read-out: Plant response rating, Sedge, Umbrella (0 to 100 scale where 0 is no effect and 100 is complete control)
[22] = 360 h, visually evaluated after 13 to 15 d, read-out: Plant response rating, Ducksalad (0 to 100 scale where 0 is no effect and 100 is complete control)
[23] = preemergence, visual rating after approx. 10 d, 0 to 100 scale where 0 is no effect and 100 is complete control
[24] = preemergence, 0 to 100 scale, 0 = no effect, 100 = complete control

Row | SMILES | pest or weed control at 500 g/ha [1, 14] | pest or weed control at 125 g/ha [1, 15] | pest or weed control at 500 g/ha [3, 14] | pest or weed control at 125 g/ha [3, 15] | pest or weed control at 500 g/ha [4, 14] | pest or weed control at 125 g/ha [4, 15] | pest or weed control at 125 g/ha [8, 16] | pest or weed control at 500 g/ha [8, 17] | plant injury at 125 g/ha ([9]; 125 g ai/ha) | Corn plant response rating (crop injury, 0 = no effect, 100 = complete kill) at 500 g/ha [9, 18] | pest or weed control at 250 g/ha [10, 19] | pest or weed control at 250 g/ha [11, 20] | pest or weed control at 250 g/ha [12, 21] | pest or weed control at 250 g/ha [13, 22] | also measured
1 | CN1C[C@H](c2ccc(C(F)(F)F)cc2)[C@@H](C(=O)Nc2cccc(F)c2C#N)C1=O [Compound 1380] | 100% | 90% | 90% | 80% | 100% | 100% | 50% | 60% | 50% | 80% | 60% | 0% | 0% | 100% | pest or weed control at 500 g/ha [2, 14]: 80%; pest or weed control at 125 g/ha [2, 15]: 70%; pest or weed control at 500 g/ha [5, 14]: 90%; pest or weed control at 125 g/ha [5, 15]: 80%; pest or weed control at 500 g/ha ([6]; 500 g ai/ha, preemergence, 0 to 100 scale (0 no effect, 100 complete control)): 50%; pest or weed control at 125 g/ha [6, 15]: 50%; pest or weed control at 125 g/ha ([7]; Postemergence, visual rating about 10 d after treatment, read-out: Galium plant response rating (0 to 100 scale)): 50%; pest or weed control at 500 g/ha ([7]; Postemergence, 500 g ai/ha, visual injury, 0 to 100 scale (0 no effect, 100 complete control), approx. 10 d, read-out: Plant response rating, Galium): 50%
2 | CN1C[C@H](c2nccs2)[C@@H](C(=O)Nc2ccccc2F)C1=O [Compound 773] |  |  |  |  |  |  |  |  |  |  |  |  |  |  | pest or weed control at 125 g/ha [1, 23]: 0%; pest or weed control at 500 g/ha [1, 24]: 0%; pest or weed control at 125 g/ha [2, 23]: 0%; pest or weed control at 500 g/ha [2, 24]: 0%; pest or weed control at 125 g/ha [3, 23]: 0%; pest or weed control at 500 g/ha [3, 24]: 0%; pest or weed control at 125 g/ha [4, 23]: 0%; pest or weed control at 500 g/ha [4, 24]: 0%; pest or weed control at 125 g/ha [5, 23]: 0%; pest or weed control at 500 g/ha [5, 24]: 0%; pest or weed control at 125 g/ha [6, 23]: 0%; pest or weed control at 125 g/ha ([7]; postemergence, visual injury after approximately 10 d, 0 to 100 scale (0 no effect, 100 complete control), read-out: Plant response rating, Galium): 0%; pest or weed control at 125 g/ha ([8]; postemergence, visual injury after approximately 10 d, 0 to 100 scale (0 no effect, 100 complete control), read-out: Plant response rating, Pigweed): 0%; Corn plant response rating (crop injury, 0 = no effect, 100 = complete kill) at 125 g/ha ([9]; 125 g ai/ha, postemergence, visual injury after approximately 10 d, 0 to 100 scale (0 no effect, 100 complete control)): 0%; pest or weed control at 250 g/ha ([10]; scale of 0 to 100 where 0 is no effect and 100 is complete control, read-out: Barnyardgrass plant response rating): 0%; pest or weed control at 250 g/ha ([11]; scale of 0 to 100 where 0 is no effect and 100 is complete control, read-out: Rice plant response rating): 0%; pest or weed control at 250 g/ha ([12]; scale of 0 to 100 where 0 is no effect and 100 is complete control, read-out: Sedge, Umbrella plant response rating): 0%; pest or weed control at 250 g/ha ([13]; scale of 0 to 100 where 0 is no effect and 100 is complete control, read-out: Ducksalad plant response rating): 0%
3 | O=C1NCC(c2ccccc2)C1C(=O)Nc1ccccc1Oc1ccccc1 (stereo not drawn) [Compound 1357] | 0% | 0% | 0% | 0% | 0% | 0% | 0% | 0% | 0% | 0% |  |  |  |  | 
4 | O=C1NCC(c2ccccc2)C1C(=O)Nc1ccccc1 (stereo not drawn) [Compound 1358] | 0% | 0% | 0% | 0% | 0% | 0% | 0% | 0% | 0% | 0% | 0% | 0% | 0% | 0% | 
5 | N#Cc1ccc(NC(=O)C2C(=O)NCC2c2ccccc2)cc1 (stereo not drawn) [Compound 1355] | 0% | 0% | 0% | 0% | 0% | 0% | 0% | 0% | 0% | 0% |  |  |  |  | 
6 | O=C1NCC(c2ccccc2)C1C(=O)Nc1cccnc1 (stereo not drawn) [Compound 1356] | 0% | 0% | 0% | 0% | 0% | 0% | 0% | 0% | 0% | 0% |  |  |  |  | 
